In ChEMBL document CHEMBL3137667, “[Drug-induced liver injury; fourteenth updated edition of the bibliographic database of liver injuries and related drugs]” (Gastroenterol Clin Biol, 2004):
Where a SMILES comes first, the peptide text is derived from it. Bridges are numbered along the chain shown (N, C = ends). [ ]: non-standard residue; d: D form. The star is where a group is joined. Threoninol(2S,3R) = C[C@@H](O)[C@H](CO)N*

Assays:
[1] = human
[2] = Comments (NB not yet translated). [column 'COMMENTAIRES' in source]; details: human
[3] = human; remark: listed apart in the source
[4] = Highest frequency of acute liver toxicity observed during clinical trials, expressed as a percentage. [column '% AIGUE' in source]; details: human
[5] = human, serum
[6] = Times to onset, minimal and maximal, observed in the indexed observations. [column 'DELAI' in source]; details: human
[7] = Proposed mechanism(s) of liver damage. [column 'MEC' in source]; details: human
[8] = human; remark: listed apart in the source
[9] = human; remark: listed apart in the source
[10] = human; remark: listed apart in the source
[11] = human; remark: listed apart in the source
[12] = human; remark: listed apart in the source
[13] = human, serum, 4383 h
[14] = Highest frequency of moderate liver toxicity observed during clinical trials, expressed as a percentage. [column '% BIOL' in source]; details: human
[15] = human; remark: listed apart in the source
[16] = Presence of at least one case with successful reintroduction. [column 'REINT' in source]; details: human
[17] = human, serum; remark: listed apart in the source
[18] = human; remark: listed apart in the source
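Throughout, for Hepatotoxicity (association with vascular disease): count of indexed literature references reporting vascular liver injury in humans, e.g. peliosis hepatitis, hepatic veno-occlusive disease or Budd-Chiari syndrome.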
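Throughout, for Hepatotoxicity (benign tumour): value is a count of indexed literature references citing a benign tumour confirmed by histopathology.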
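Throughout, for Hepatotoxicity (choleostasis): human cholestatic liver injury, shown by histopathology or by peak ALT or AST elevation over alkaline phosphatase ratio below 2, value counts indexed literature reports.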
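Throughout, for Hepatotoxicity (chronic liver disease): chronic liver injury confirmed by histopathology or persistently raised serum aminotransferase activity beyond 6 months, value given as the count of indexed literature references.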
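Throughout, for Hepatotoxicity (cirrhosis): value is a count of indexed literature references reporting cirrhosis confirmed by histopathology.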
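Throughout, for Hepatotoxicity (cytolytic): human cytolytic liver injury, shown by histopathology or by a ratio above 5 of peak ALT or AST elevation to alkaline phosphatase elevation, value counts indexed references.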
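Throughout, for Hepatotoxicity (granulomatous hepatitis): value is a count of indexed literature references reporting granulomatous liver disease confirmed by histopathology.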
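Throughout, for Hepatotoxicity (malignant tumour): malignant tumour confirmed by histopathology, value gives the count of indexed literature references reporting it.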
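Throughout, for Hepatotoxicity (severe hepatitis): human clinical data: severe hepatitis, meaning potentially life-threatening liver failure or clinically observed cases, the value counts how many indexed literature references report it.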
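Throughout, for Hepatotoxicity (steatosis): steatosis confirmed by histopathology, value is the count of indexed references.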

CC1=C(CC(=O)O)c2cc(F)ccc2/C1=C\c1ccc([S+](C)[O-])cc1 (stereo not drawn)
Hepatotoxicity (association with vascular disease) [1]: 0
Hepatotoxicity (comment) [2]: LITHIASE CHOLESTASE_PROLONGEE CHOLANGITE
Hepatotoxicity (cirrhosis) [3]: 0
Hepatotoxicity (acute) [4]: 0.2%
Hepatotoxicity (moderate) [5]: 25
Hepatotoxicity (time to onset) [6]: 1 day - 1.5 years
Hepatotoxicity (mechanism) [7]: Allergic
Hepatotoxicity (granulomatous hepatitis) [8]: 0
Hepatotoxicity (choleostasis) [9]: 22
Hepatotoxicity (cytolytic) [10]: 12
Hepatotoxicity (malignant tumour) [11]: 0
Hepatotoxicity (steatosis) [12]: 4
Hepatotoxicity (chronic liver disease) [13]: 0
Hepatotoxicity (moderate) [14]: 14.9%
Hepatotoxicity (severe hepatitis) [15]: 3
Hepatotoxicity (successful reintroduction) [16]: yes
Hepatotoxicity (acute) [17]: 29
Hepatotoxicity (benign tumour) [18]: 0

CC1(C)S[C@@H]2[C@H](NC(=O)[C@H](N)c3ccc(O)cc3)C(=O)N2[C@H]1C(=O)O.O=C(O)[C@H]1/C(=C/CO)O[C@@H]2CC(=O)N21
Hepatotoxicity (association with vascular disease) [1]: 0
Hepatotoxicity (comment) [2]: CHOLANGITE #CBP AC_ANTI-N RC/ERYTHROMYCINE
Hepatotoxicity (cirrhosis) [3]: 1
Hepatotoxicity (acute) [4]: 0.3%
Hepatotoxicity (moderate) [5]: 15
Hepatotoxicity (time to onset) [6]: < 1 day - 15 weeks
Hepatotoxicity (mechanism) [7]: Allergic
Hepatotoxicity (granulomatous hepatitis) [8]: 6
Hepatotoxicity (choleostasis) [9]: 61
Hepatotoxicity (cytolytic) [10]: 21
Hepatotoxicity (malignant tumour) [11]: 0
Hepatotoxicity (steatosis) [12]: 7
Hepatotoxicity (chronic liver disease) [13]: 0
Hepatotoxicity (moderate) [14]: 15%
Hepatotoxicity (severe hepatitis) [15]: 8
Hepatotoxicity (successful reintroduction) [16]: yes
Hepatotoxicity (acute) [17]: 74
Hepatotoxicity (benign tumour) [18]: 0

CCC[N+]12[C@H](O)[C@@H](CC)[C@@H]3C[C@H]1[C@@H]1N(C)c4ccccc4[C@]14C[C@H]2C3[C@H]4O (stereo partly drawn)
Hepatotoxicity (association with vascular disease) [1]: 0
Hepatotoxicity (comment) [2]: RC/QUINIDINE CHOLESTASE_PROLONGEE CHOLANGITE
Hepatotoxicity (cirrhosis) [3]: 0
Hepatotoxicity (acute) [4]: 0%
Hepatotoxicity (moderate) [5]: 0
Hepatotoxicity (time to onset) [6]: 3 days - 4 months
Hepatotoxicity (mechanism) [7]: Allergic
Hepatotoxicity (granulomatous hepatitis) [8]: 2
Hepatotoxicity (choleostasis) [9]: 14
Hepatotoxicity (cytolytic) [10]: 3
Hepatotoxicity (malignant tumour) [11]: 0
Hepatotoxicity (steatosis) [12]: 0
Hepatotoxicity (chronic liver disease) [13]: 2
Hepatotoxicity (moderate) [14]: 0%
Hepatotoxicity (severe hepatitis) [15]: 0
Hepatotoxicity (successful reintroduction) [16]: yes
Hepatotoxicity (acute) [17]: 15
Hepatotoxicity (benign tumour) [18]: 0

CC1=C(/C=C/C(C)=C/C=C/C(C)=C/CO)C(C)(C)CCC1.O=C(O)Cc1cc(I)c(Oc2ccc(O)c(I)c2)c(I)c1
Hepatotoxicity (association with vascular disease) [1]: 0
Hepatotoxicity (comment) [2]: AC_ANTI-N
Hepatotoxicity (cirrhosis) [3]: 1
Hepatotoxicity (acute) ([4]; Liver): 0%
Hepatotoxicity (moderate) [5]: 0
Hepatotoxicity (time to onset) [6]: 2 weeks - 9 years
Hepatotoxicity (mechanism) ([7]; Liver): Allergic
Hepatotoxicity (granulomatous hepatitis) ([8]; Liver): 0
Hepatotoxicity (choleostasis) ([9]; Liver): 1
Hepatotoxicity (cytolytic) ([10]; Liver): 7
Hepatotoxicity (malignant tumour) [11]: 0
Hepatotoxicity (steatosis) [12]: 0
Hepatotoxicity (chronic liver disease) [13]: 1
Hepatotoxicity (moderate) ([14]; Liver): 0%
Hepatotoxicity (severe hepatitis) ([15]; Liver): 1
Hepatotoxicity (successful reintroduction) [16]: yes
Hepatotoxicity (acute) [17]: 7
Hepatotoxicity (benign tumour) [18]: 0

CCOC(=O)[C@H](CCc1ccccc1)N[C@@H](C)C(=O)N1CCC[C@H]1C(=O)O
Hepatotoxicity (association with vascular disease) [1]: 0
Hepatotoxicity (comment) [2]: DUCTOPENIE RC/CAPTOPRIL
Hepatotoxicity (cirrhosis) [3]: 0
Hepatotoxicity (acute) [4]: 0%
Hepatotoxicity (moderate) [5]: 9
Hepatotoxicity (time to onset) [6]: 10 days - 3 years
Hepatotoxicity (mechanism) [7]: Allergic
Hepatotoxicity (granulomatous hepatitis) [8]: 0
Hepatotoxicity (choleostasis) [9]: 4
Hepatotoxicity (cytolytic) [10]: 7
Hepatotoxicity (malignant tumour) [11]: 0
Hepatotoxicity (steatosis) [12]: 0
Hepatotoxicity (chronic liver disease) [13]: 0
Hepatotoxicity (moderate) [14]: 2.8%
Hepatotoxicity (severe hepatitis) [15]: 3
Hepatotoxicity (successful reintroduction) [16]: yes
Hepatotoxicity (acute) [17]: 13
Hepatotoxicity (benign tumour) [18]: 0

C[C@@H](O)[C@H](CO)NC(=O)[C@@H]1CSSC[C@H](NC(=O)[C@H](N)Cc2ccccc2)C(=O)N[C@@H](Cc2ccccc2)C(=O)N[C@H](Cc2c[nH]c3ccccc23)C(=O)N[C@@H](CCCCN)C(=O)N[C@@H]([C@@H](C)O)C(=O)N1 (H-[dF]CF[dW]KTC-{Threoninol(2S,3R)}; disulfide 2-7)
Hepatotoxicity (association with vascular disease) [1]: 0
Hepatotoxicity (comment) [2]: BOUE_BILIAIRE LITHIASE
Hepatotoxicity (cirrhosis) [3]: 0
Hepatotoxicity (acute) [4]: 0%
Hepatotoxicity (moderate) [5]: 8
Hepatotoxicity (time to onset) [6]: 1 day - 14 months
Hepatotoxicity (mechanism) [7]: Dose-dependant
Hepatotoxicity (granulomatous hepatitis) [8]: 0
Hepatotoxicity (choleostasis) [9]: 1
Hepatotoxicity (cytolytic) [10]: 3
Hepatotoxicity (malignant tumour) [11]: 0
Hepatotoxicity (steatosis) [12]: 0
Hepatotoxicity (chronic liver disease) [13]: 0
Hepatotoxicity (moderate) [14]: 17.6%
Hepatotoxicity (severe hepatitis) [15]: 1
Hepatotoxicity (successful reintroduction) [16]: yes
Hepatotoxicity (acute) [17]: 3
Hepatotoxicity (benign tumour) [18]: 0

CC(=O)N[C@@H](CS)C(=O)O [ACETYLCYSTEINE]
Hepatotoxicity (association with vascular disease) [1]: 0
Hepatotoxicity (comment) [2]: PERICHOLANGITE
Hepatotoxicity (cirrhosis) [3]: 0
Hepatotoxicity (acute) [4]: 0%
Hepatotoxicity (moderate) [5]: 0
Hepatotoxicity (time to onset) [6]: 4 days
Hepatotoxicity (mechanism) [7]: Dose-dependant
Hepatotoxicity (granulomatous hepatitis) [8]: 0
Hepatotoxicity (choleostasis) [9]: 0
Hepatotoxicity (cytolytic) [10]: 1
Hepatotoxicity (malignant tumour) [11]: 0
Hepatotoxicity (steatosis) [12]: 1
Hepatotoxicity (chronic liver disease) [13]: 0
Hepatotoxicity (moderate) [14]: 0%
Hepatotoxicity (severe hepatitis) [15]: 0
Hepatotoxicity (successful reintroduction) [16]: yes
Hepatotoxicity (acute) [17]: 1
Hepatotoxicity (benign tumour) [18]: 0

COc1cc(C)c(/C=C/C(C)=C/C=C/C(C)=C/C(=O)O)c(C)c1C [ACITRETIN]
Hepatotoxicity (association with vascular disease) [1]: 0
Hepatotoxicity (comment) [2]: CHOLANGIOLITE CHOLESTASE_PROLONGEE AGGRAVATION_HVA
Hepatotoxicity (cirrhosis) [3]: 1
Hepatotoxicity (acute) [4]: 10%
Hepatotoxicity (moderate) [5]: 16
Hepatotoxicity (time to onset) [6]: 1.5 hours - 5 months
Hepatotoxicity (mechanism) [7]: Dose-dependant
Hepatotoxicity (granulomatous hepatitis) [8]: 0
Hepatotoxicity (choleostasis) [9]: 1
Hepatotoxicity (cytolytic) [10]: 5
Hepatotoxicity (malignant tumour) [11]: 0
Hepatotoxicity (steatosis) [12]: 0
Hepatotoxicity (chronic liver disease) [13]: 2
Hepatotoxicity (moderate) [14]: 30%
Hepatotoxicity (severe hepatitis) [15]: 0
Hepatotoxicity (successful reintroduction) [16]: yes
Hepatotoxicity (acute) [17]: 12
Hepatotoxicity (benign tumour) [18]: 0

CC[C@H]1[C@@H]2C[C@H]3[C@@H]4N(C)c5ccccc5[C@]45C[C@@H]([C@@H]2[C@H]5O)N3[C@@H]1O [AJMALINE]
Hepatotoxicity (association with vascular disease) [1]: 0
Hepatotoxicity (comment) [2]: CHOLESTASE_PROLONGEE RC/AMIODARONE
Hepatotoxicity (cirrhosis) [3]: 1
Hepatotoxicity (acute) [4]: 0.1%
Hepatotoxicity (moderate) [5]: 2
Hepatotoxicity (time to onset) [6]: 1 day - 4 years
Hepatotoxicity (mechanism) [7]: Allergic
Hepatotoxicity (granulomatous hepatitis) [8]: 0
Hepatotoxicity (choleostasis) [9]: 28
Hepatotoxicity (cytolytic) [10]: 6
Hepatotoxicity (malignant tumour) [11]: 0
Hepatotoxicity (steatosis) [12]: 0
Hepatotoxicity (chronic liver disease) [13]: 1
Hepatotoxicity (moderate) [14]: 0%
Hepatotoxicity (severe hepatitis) [15]: 0
Hepatotoxicity (successful reintroduction) [16]: yes
Hepatotoxicity (acute) [17]: 29
Hepatotoxicity (benign tumour) [18]: 0

Oc1ncnc2[nH]ncc12 [ALLOPURINOL]
Hepatotoxicity (association with vascular disease) [1]: 0
Hepatotoxicity (comment) [2]: CHOLANGITE RC/METHYLDOPA REACTIVATION_HSV6
Hepatotoxicity (cirrhosis) [3]: 0
Hepatotoxicity (acute) [4]: 0.1%
Hepatotoxicity (moderate) [5]: 14
Hepatotoxicity (time to onset) [6]: 6 days - 5 years
Hepatotoxicity (mechanism) [7]: Allergic
Hepatotoxicity (granulomatous hepatitis) [8]: 13
Hepatotoxicity (choleostasis) [9]: 12
Hepatotoxicity (cytolytic) [10]: 26
Hepatotoxicity (malignant tumour) [11]: 0
Hepatotoxicity (steatosis) [12]: 4
Hepatotoxicity (chronic liver disease) [13]: 0
Hepatotoxicity (moderate) [14]: 3.1%
Hepatotoxicity (severe hepatitis) [15]: 12
Hepatotoxicity (successful reintroduction) [16]: yes
Hepatotoxicity (acute) [17]: 47
Hepatotoxicity (benign tumour) [18]: 0

O=C(O)CCCCCCNC1c2ccccc2CCc2ccccc21 [AMINEPTINE]
Hepatotoxicity (association with vascular disease) [1]: 0
Hepatotoxicity (comment) [2]: RC/CLOMIPRAMINE
Hepatotoxicity (cirrhosis) [3]: 1
Hepatotoxicity (acute) [4]: 0%
Hepatotoxicity (moderate) [5]: 6
Hepatotoxicity (time to onset) [6]: 1 day - 10 months
Hepatotoxicity (mechanism) [7]: Allergic, Reactive metabolite
Hepatotoxicity (granulomatous hepatitis) [8]: 0
Hepatotoxicity (choleostasis) [9]: 18
Hepatotoxicity (cytolytic) [10]: 17
Hepatotoxicity (malignant tumour) [11]: 0
Hepatotoxicity (steatosis) [12]: 5
Hepatotoxicity (chronic liver disease) [13]: 0
Hepatotoxicity (moderate) [14]: 0.6%
Hepatotoxicity (severe hepatitis) [15]: 0
Hepatotoxicity (successful reintroduction) [16]: yes
Hepatotoxicity (acute) [17]: 20
Hepatotoxicity (benign tumour) [18]: 0
